Data on 7 compounds can be found in ChEMBL document CHEMBL3868638, “Potential Treatment of Cognitive Impairment in Schizophrenia by Phosphodiesterase 2 (PDE2) Inhibitors” (ACS Med Chem Lett, 2017).

The source made the active and inactive calls. The calls are words filed in the database; no cut-off is given here.

The species entered for one test is Homo sapiens. The experiment in a line: (§1) Inhibition of human PDE2 using FAM-labeled cAMP as substrate after 60 mins in presence of cGMP by florescence polarization assay.
As for `COc1ccc(Cc2nc(O)c3c(C)nc([C@@H](CCCc4ccccc4)[C@@H](C)O)n3n2)cc1OC`, the inhibition entry is “Active”.

Biological target in a further test: not listed separately
Described as §1.
For `CC[C@@H](NC(=O)c1cc(=O)[nH]c(N(C)C)n1)c1ccc(SC(F)(F)F)cc1`, the Ki was in the range of 0.69 to 5.05 nM.
`CN(C)c1nc(C(=O)N[C@@H](c2ccc(OC(F)(F)F)c(F)c2)C(C)(C)O)cc(=O)[nH]1`: the inhibitory constant (Ki) was found to be 0.12 nM.
Consider `C[C@@H](NC(=O)c1cc(=O)[nH]c(N(C)C)n1)c1ccc(SC(F)(F)F)cc1`, for which the Ki fell in the range of 0.32 to 0.82 nM.
As for `CN(C)c1nc(C(=O)NC2(c3ccc(C(F)(F)F)c(F)c3)CC2)cc(=O)[nH]1`, the inhibition constant Ki lay within 0.9 to 0.96 nM.
As to `CC(C)[C@@H](NC(=O)c1cc(=O)[nH]c(N(C)C)n1)c1ccc(SC(F)(F)F)cc1`, the inhibitory constant (Ki) was 0.37 to 5.1 nM.
The same measure, in the same setting: as for `C[C@@H](NC(=O)c1cc(=O)[nH]c(N(C)C)n1)c1ccc(OC(F)(F)F)c(Cl)c1`, the figure is 1.6 nM.

As usually defined, the Ki is the dissociation constant of the complex between target and ligand, obtained from inhibition or displacement.
